What was measured:
MDA-MB-231 = test: Tumor cell viability, CCK-8 assay, MDA-MB-231; format: cell-based; conditions: MDA-MB-231 (human breast cancer); compound treatment 1uM; 2 days
Description: (§1) To examine whether the compounds having CRBN-binding activity according to the present invention exert tumor cell apoptosis effects, the assay was conducted using various human cancer cell lines, including human multiple myeloma cell lines (MM.1S and MM.1R-LR), a human breast cancer cell line (MDA-MB-231), a human lung cancer cell line (A549), a human rhabdomyosarcoma cell line (RD), and a human lymphoma cell line (Jeko-1).
(§2) The MM.1S, MM.1R-LR, MDA-MB-231, A549, RD, and Jeko-1 cell lines were obtained from the American Type Culture Collection (ATCC, Manassas, VA, USA) and cultured in RPMI 1640 medium (Corning, MD, USA) or DMEM (Corning, MD, USA) supplemented with 10% fetal bovine serum (FBS) (Corning, MD, USA), 100 U/mL penicillin (Corning, MD, USA), and 100 µg/mL streptomycin (Corning, MD, USA) at 37°C in a 5% CO2 incubator for 24 hours. The cells were seeded at a density of 1 × 10^4 cells/well in 96-well plates and incubated for 24 hours. After incubation, the test compounds dissolved in dimethyl sulfoxide (DMSO, CAS No.: 67-68-5) were serially diluted to a final concentration of 10 µM and applied to the cells. Following an additional incubation for 2 to 5 days, the analysis was performed using a CCK-8 assay kit (Dojindo, Japan) according to the manufacturer's instructions.

A549 = test: Tumor cell viability, CCK-8 assay, A549; format: cell-based; conditions: A549 (human lung cancer); compound treatment 1uM; 2 days
Description: as §1, §2

RD = test: Tumor cell viability, CCK-8 assay, RD; format: cell-based; conditions: RD (human rhabdomyosarcoma); compound treatment 1uM; 3 days
Description: as §1, §2

cereblon (CRBN) = cereblon (CRBN) (Homo sapiens, UniProt Q96SW2); test: In vitro CRBN binding assay (AlphaScreen, competitive inhibition of the PROTAC assay); conditions: Table 1; AlphaScreen, PROTAC Optimization Kit for BET Bromodomain-Cereblon Binding; read-out: Alpha IC50
MM.1S = test: Tumor cell viability, CCK-8 assay, MM.1S; format: cell-based; conditions: MM.1S (human multiple myeloma); compound treatment 1uM; 5 days
Description: as §1, §2

Jeko-1 = test: Tumor cell viability, CCK-8 assay, Jeko-1; format: cell-based; conditions: Jeko-1 (human lymphoma); compound treatment 1uM; 3 days
Description: as §1, §2

MM.1R-LR = test: Tumor cell viability, CCK-8 assay, MM.1R-LR; format: cell-based; conditions: MM.1R-LR (drug-resistant human multiple myeloma); compound treatment 1uM; 5 days
Description: as §1, §2

Compound	Cell viability (% of control) (MDA-MB-231)	Cell viability (% of control) (A549)	Cell viability (% of control) (RD)	IC50 (cereblon (CRBN)) [nM]	Cell viability (% of control) (MM.1S)	Cell viability (% of control) (Jeko-1)	Cell viability (% of control) (MM.1R-LR)
O=C1CCC(c2cccc(NS(=O)(=O)c3cccc(NC(=O)c4ccc(CCCCCCl)cc4)c3)c2)C(=O)N1 (stereo not drawn) [AEV41047, 4-(5-chloropentyl)-N-(3-(N-(3-(2,6-dioxopiperidin-3-yl)phenyl)sulfamoyl)phenyl)benzamide]	28.2 % of control	32.2 % of control	20.5 % of control	1880	14.9 % of control	15.7 % of control	56.9 % of control
CCCCCCc1ccc(C(=O)Nc2cccc(S(=O)(=O)Nc3cccc(C4CCC(=O)NC4=O)c3)c2)cc1 (stereo not drawn) [AEV41083, N-(3-(N-(3-(2,6-dioxopiperidin-3-yl)phenyl)sulfamoyl)phenyl)-4-hexylbenzamide]	35.5 % of control	29.5 % of control	31.4 % of control	910	17.8 % of control	9.7 % of control	54.7 % of control
O=C1CCC(c2cccc(NS(=O)(=O)c3cccc(NC(=O)c4ccc(CCCCCCCl)cc4)c3)c2)C(=O)N1 (stereo not drawn) [AEV41048, 4-(6-chlorohexyl)-N-(3-(N-(3-(2,6-dioxopiperidin-3-yl)phenyl)sulfamoyl)phenyl)benzamide]	45.6 % of control	47.0 % of control	54.0 % of control	2590	10.8 % of control	13.0 % of control	51.5 % of control

From patent EP4692061A1, “LOW-MOLECULAR-WEIGHT COMPOUND HAVING CEREBLON-BINDING ACTIVITY, AND USE THEREOF” (Aevis Bio, Inc., priority 2023, dated 2024)
